# US20090047244A1, “MACROCYCLIC SERINE PROTEASE INHIBITORS I” (Idenix Pharmaceuticals, Inc., priority 2007, published 2009)
# Columns and labels:
# [1] = Cytotoxicity evaluation (Cell Titer 96 AQueous One Solution Cell Proliferation Assay); format: cell-based; conditions: human; GS4.1 cells, cellular viability
# Experimental: For cytotoxicity evaluation, GS4.1 cells were treated with compounds as described above and cellular viability was monitored using the Cell Titer 96 AQueous One Solution Cell Proliferation Assay (Promega). CC50 values were determined from the % cytotoxicity versus concentration data with Tecan Magellan software as described above.
# [2] = system: Huh-7 cells containing HCV Con1 subgenomic replicon (GS4.1 cells); assay: HCV Replicon Assay (NS4A ELISA); format: cell-based; conditions: Hepatitis C virus, 72 hr, NS4A protein expression by ELISA
# Experimental: General procedure: Huh-7 cells containing HCV Con1 subgenomic replicon (GS4.1 cells) were grown in Dulbecco's Modified Eagle Medium (DMEM) supplemented with 10% fetal bovine serum (FBS), 2 mM L-glutamine, 110 mg/L sodium pyruvate, 1X non-essential amino acids, 100 U/mL penicillin-streptomycin, and 0.5 mg/mL G418 (Invitrogen). For dose-response testing, the cells were seeded in 96-well plates at 7.5×10^3 cells/well in a volume of 50 μL, and incubated at 37° C./5% CO2. Three hours after plating, 50 μL of ten 2-fold serial dilutions of compounds (highest concentration, 75 μM) were added, and cell cultures were incubated at 37° C./5% CO2 in the presence of 0.5% DMSO. Alternatively, compounds were tested at a single concentration of 15 μM. In all cases, Huh-7 cells lacking the HCV replicon served as negative control. The cells were incubated in the presence of compounds for 72 hr after which they were monitored for expression of the NS4A protein by enzyme-linked immunosorbent assay (ELISA). For this, the plates were then fixed for 1 min with acetone/methanol (1:1, v/v), washed twice with phosphate-buffered saline (PBS), 0.1% Tween 20, blocked for 1 hr at room temperature with TNE buffer containing 10% FBS and then incubated for 2 hr at 37° C. with the anti-NS4A mouse monoclonal antibody A-236 (ViroGen) diluted in the same buffer. After washing three times with PBS, 0.1% Tween 20, the cells were incubated 1 hr at 37° C. with anti-mouse immunoglobulin G-peroxidase conjugate in TNE, 10% FBS. After washing as described above, the reaction was developed with O-phenylenediamine (Zymed). The reaction was stopped after 30 min with 2 N H2SO4, and absorbance was read at 492 nm using Sunrise Tecan spectrophotometer. EC50 values were determined from the % inhibition versus concentration data using a sigmoidal non-linear regression analysis based on four parameters with Tecan Magellan software. When screening at a single concentration, the results were expressed as % inhibition at 15 μM.
# HCV NS3-NS4A protease = target: T1, HCV NS3-NS4A protease (Hepatitis C virus genotype 1a, UniProt P27958); assay: HCV Protease Assay (SensoLyte 620 HCV Protease Assay kit); format: biochemical; conditions: 1.2 nM HCV NS3-NS4A protease, 5% DMSO, 60 min at room temperature
# T1 construct: made in house
# T1 sequence (P27958 1027-1208): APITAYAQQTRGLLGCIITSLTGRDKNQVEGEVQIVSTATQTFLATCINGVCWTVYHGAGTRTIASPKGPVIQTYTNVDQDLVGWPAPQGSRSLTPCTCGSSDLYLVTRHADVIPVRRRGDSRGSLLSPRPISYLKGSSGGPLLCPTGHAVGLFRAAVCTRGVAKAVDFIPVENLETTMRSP
# Experimental: General procedure: Measurement of the inhibitory effect of compounds on HCV protease activity was performed with the SensoLyte™ 620 HCV Protease Assay kit from AnaSpec, Inc. (San Jose, Calif.) under conditions described by the supplier using 1.2 nM HCV NS3-NS4A protease, which was obtained according to Taremi et al. (Protein Science, 1998, 7, 2143-2149). The compounds were tested at a variety of concentrations in assay buffer containing a final DMSO concentration of 5%. Reactions were allowed to proceed for 60 min at room temperature and fluorescence measurements were recorded with a Tecan Infinity Spectrofluorimeter. The IC50 values were determined from the percent inhibition versus concentration data using a sigmoidal non-linear regression analysis based on four parameters with Tecan Magellan software.
Structure (SMILES),CC50 [1] [µM],EC50 [2] [µM],IC50 (HCV NS3-NS4A protease) [µM]
COc1ccc2c(C(=O)OCC[C@@H]3NC(=O)N(C)CCCC/C=C\[C@@H]4C[C@@]4(C(=O)NS(=O)(=O)C4CC4)NC3=O)cc(-c3ccccc3)nc2c1,> 1000,> 1000,0.1 to 10
COc1ccc2c(OCCC3NC(=O)N(C)CCCC/C=C\C4CC4(C(=O)NS(=O)(=O)C4(F)CC4)NC3=O)cc(-c3nc(C(C)C)cs3)nc2c1Cl (stereo not drawn),> 1000,0.1 to 10,< 0.1
CC(=O)OCC[C@@H]1NC(=O)N(C)CCCC/C=C\[C@@H]2C[C@@]2(C(=O)NS(=O)(=O)C2CC2)NC1=O,> 1000,> 1000,0.1 to 10
COc1ccc2c(OCC[C@@H]3NC(=O)N(C)CCCC/C=C\[C@@H]4C[C@@]4(C(=O)NS(=O)(=O)N4CCC[C@H]4C#N)NC3=O)cc(-c3nc(C(C)C)cs3)nc2c1Cl,> 1000,0.1 to 10,0.1 to 10
COc1ccc2c(OCC[C@@H]3NC(=O)N(C)CCCC/C=C\[C@@H]4C[C@@]4(C(=O)NS(=O)(=O)C4CC4)NC3=O)cc(-c3nc(C(C)C)cs3)nc2c1F,> 1000,10 to 1000,< 0.1
CCn1ccc(-c2cc(OCC[C@@H]3NC(=O)N(C)CCCC/C=C\[C@@H]4C[C@@]4(C(=O)OS(=O)(=O)C4(C)CC4)NC3=O)c3ccc(OC)c(C)c3n2)n1,> 1000,0.1 to 10,< 0.1
COc1ccc2c(OCC[C@@H]3NC(=O)N(C)CCCC/C=C\[C@@H]4C[C@@]4(C(=O)NS(=O)(=O)C4CC4)NC3=O)cc(-c3nc(C(C)C)cs3)nc2c1Cl,> 1000,< 0.1,< 0.1
COc1ccc2c(OCC[C@@H]3NC(=O)N(C)CCCC/C=C\[C@@H]4C[C@@]4(C(=O)NS(=O)(=O)C4(C)CC4)NC3=O)cc(-c3ccn(CCN4CCOCC4)n3)nc2c1C,> 1000,0.1 to 10,< 0.1
C#C[C@@H]1CCCN1S(=O)(=O)NC(=O)[C@@]12C[C@H]1/C=C\CCCCN(C)C(=O)N[C@@H](CCOc1cc(-c3nc(C(C)C)cs3)nc3c(Cl)c(OC)ccc13)C(=O)N2,> 1000,0.1 to 10,< 0.1
CCC1(S(=O)(=O)NC(=O)[C@@]23C[C@H]2/C=C\CCCCN(C)C(=O)N[C@@H](CCOc2cc(-c4nc(C(C)C)cs4)nc4c(Cl)c(OC)ccc24)C(=O)N3)CC1,> 1000,< 0.1,< 0.1
COc1ccc2c(OCCC3NC(=O)N(C)CCCC/C=C\C4CC4(C(=O)NS(=O)(=O)C4(C)CC4)NC3=O)cc(-c3nc(C(C)C)cs3)nc2c1Br (stereo not drawn),> 1000,< 0.1,< 0.1
COc1ccc2c(OCC[C@@H]3NC(=O)N(C)CCCC/C=C\[C@@H]4C[C@@]4(C(=O)NS(=O)(=O)C4(C)CC4)NC3=O)cc(-n3ccc(C(F)(F)F)n3)nc2c1Cl,> 1000,< 0.1,< 0.1
COc1ccc2c(OCC[C@@H]3NC(=O)N(C)CCCC/C=C\[C@@H]4C[C@@]4(C(=O)S(=O)(=O)C4(C)CC4)NC3=O)cc(-c3ccn(Cc4ccccc4)n3)nc2c1C,> 1000,0.1 to 10,< 0.1
COc1ccc2c(OCCC3NC(=O)N(C)CCCC/C=C\C4CC4(C(=O)NS(=O)(=O)C4(C)CC4)NC3=O)cc(-c3nc(C(C)C)cs3)nc2c1F (stereo not drawn),> 1000,0.1 to 10,< 0.1
COc1ccc2c(OCC[C@@H]3NC(=O)N(C)CCCC/C=C\[C@@H]4C[C@@]4(C(=O)NS(=O)(=O)C4CC4)NC3=O)cc(-c3ccccc3)nc2c1,> 1000,0.1 to 10,< 0.1
COc1ccc2c(OCC[C@@H]3NC(=O)N(C)CCCC/C=C\[C@@H]4C[C@@]4(C(=O)NS(=O)(=O)C4(C)CC4)NC3=O)cc(-n3ccc(C(C)C)n3)nc2c1C,> 1000,< 0.1,< 0.1
COc1ccc2c(OCCC3NC(=O)N(C)CCCC/C=C\C4CC4(C(=O)NS(=O)(=O)C4(C#N)CC4)NC3=O)cc(-c3nc(C(C)C)cs3)nc2c1Cl (stereo not drawn),> 1000,0.1 to 10,< 0.1

Structure (SMILES),CC50 [1] [µM],EC50 [2] [µM],IC50 (HCV NS3-NS4A protease) [µM]
COc1ccc2c(OCC[C@@H]3NC(=O)N(C)CCCC/C=C\[C@@H]4C[C@@]4(C(=O)NS(=O)(=O)N4CCC(F)(F)C4)NC3=O)cc(-c3nc(C(C)C)cs3)nc2c1Cl,> 1000,0.1 to 10,0.1 to 10
COc1ccc2c(OCC[C@@H]3NC(=O)N(C)CCCC/C=C\[C@@H]4C[C@@]4(C(=O)NS(=O)(=O)C4(C)CC4)NC3=O)cc(-c3csc(NC(C)C)n3)nc2c1,> 1000,0.1 to 10,< 0.1
COc1ccc2c(OCC[C@@H]3NC(=O)N(C)CCCC/C=C\[C@@H]4C[C@@]4(C(=O)NS(=O)(=O)C4(C)CC4)NC3=O)cc(-c3nc(C(C)C)cs3)nc2c1,10 to 1000,< 0.1,< 0.1
COc1ccc2c(OCCC3NC(=O)N(C)CCCC/C=C\C4CC4(C(=O)NS(=O)(=O)N4CCOCC4)NC3=O)cc(-c3nc(C(C)C)cs3)nc2c1Cl (stereo not drawn),> 1000,0.1 to 10,0.1 to 10
COc1ccc2c(OCC[C@@H]3NC(=O)N(C)CCCC/C=C\[C@@H]4C[C@@]4(C(=O)O)NC3=O)cc(-c3ccccc3)nc2c1,> 1000,10 to 1000,0.1 to 10
COc1ccc2c(OCC[C@@H]3NC(=O)N(C)CCCC/C=C\[C@@H]4C[C@@]4(C(=O)NS(=O)(=O)C4(CC5CC5)CC4)NC3=O)cc(-c3nc(C(C)C)cs3)nc2c1Cl,> 1000,0.1 to 10,< 0.1
COc1ccc2c(OCC[C@@H]3NC(=O)N(C)CCCC/C=C\[C@@H]4C[C@@]4(C(=O)NS(=O)(=O)C4(C)CC4)NC3=O)cc(-c3cc(C(F)(F)F)nn3C)nc2c1C,> 1000,0.1 to 10,< 0.1
COc1ccc2c(OCC[C@@H]3NC(=O)N(C)CCCC/C=C\[C@@H]4C[C@@]4(C(=O)NS(=O)(=O)C4(C)CC4)NC3=O)cc(-c3nc(C(C)C)cs3)nc2c1Cl,> 1000,< 0.1,< 0.1
COc1ccc2c(OCC[C@@H]3NC(=O)N(C)CCCC/C=C\[C@@H]4C[C@@]4(C(=O)OS(=O)(=O)C4(C)CC4)NC3=O)cc(-n3ccc(C(F)(F)F)n3)nc2c1C,> 1000,< 0.1,< 0.1
COc1ccc2c(OCC[C@@H]3NC(=O)N(C)CCCC/C=C\[C@@H]4C[C@@]4(C(=O)NS(=O)(=O)C4(C)CC4)NC3=O)cc(-c3ccn(CCC(C)C)n3)nc2c1C,> 1000,0.1 to 10,< 0.1
COc1ccc2c(OCC[C@@H]3NC(=O)N(C)CCCC/C=C\[C@@H]4C[C@@]4(C(=O)NS(=O)(=O)C4(C)CC4)NC3=O)cc(-c3nc(C(C)C)cs3)nc2c1C,> 1000,< 0.1,< 0.1
COc1ccc2c(OCCC3NC(=O)N(C)CCCC/C=C\C4CC4(C(=O)NS(=O)(=O)N(C)C)NC3=O)cc(-c3nc(C(C)C)cs3)nc2c1Cl (stereo not drawn),> 1000,< 0.1,< 0.1
C#CC1(S(=O)(=O)NC(=O)C23CC2/C=C\CCCCN(C)C(=O)NC(CCOc2cc(-c4nc(C(C)C)cs4)nc4c(Cl)c(OC)ccc24)C(=O)N3)CC1 (stereo not drawn),> 1000,< 0.1,< 0.1
COc1ccc2c(OCC[C@@H]3NC(=O)N(C)CCCC/C=C\[C@@H]4C[C@@]4(C(=O)NS(=O)(=O)C4(C)CC4)NC3=O)cc(-n3ccc(C(C)C)n3)nc2c1Cl,> 1000,< 0.1,< 0.1
COc1ccc2c(OCC[C@@H]3NC(=O)N(C)CCCC/C=C\[C@@H]4C[C@@]4(C(=O)NS(=O)(=O)C4(I)CC4)NC3=O)cc(-c3nc(C(C)C)cs3)nc2c1C,> 1000,0.1 to 10,< 0.1
COc1ccc2c(OCC[C@@H]3NC(=O)N(C)CCCC/C=C\[C@@H]4C[C@@]4(C(=O)NS(=O)(=O)C4(C)CC4)NC3=O)cc(-c3ccn(CC(C)C)n3)nc2c1C,> 1000,0.1 to 10,< 0.1
CCCn1ccc(-c2cc(OCC[C@@H]3NC(=O)N(C)CCCC/C=C\[C@@H]4C[C@@]4(C(=O)NS(=O)(=O)C4(C)CC4)NC3=O)c3ccc(OC)c(C)c3n2)n1,> 1000,0.1 to 10,< 0.1
